Results taken from US6465460B1, “Compositions and methods for prevention and treatment of protozoal disease” (New Ace Research Company, priority 1998, dated 2002).
Blank lines part the entries; values can stand above or below the molecule they belong to.

Key:
[1] = Repeated daily IV administration of diclazuril in DMSO to the horse DEEP POWDER: plasma levels; type: in vivo; settings: horse 1160 lbs, 0.5 mg/lb (580 mg) in DMSO IV once a day for eight days, sampled 24 hours after each dose, read-out: final steady state plasma concentration of diclazuril
Description: The horse, DEEP POWDER, 1160 lbs., in Table 2 above was administered diclazuril at a dose of 0.5 mg/lb. (580 mg) in DMSO IV once a day for eight days. Plasma levels of diclazuril at 24 hours after each dose administration and just before the next day's dosing are represented by the solid circles [drawing 6]
in the above Table 2. Note bow the dose of […] yields a stepwise increasing plasma concentrations of diclazuril, yielding a final steady state plasma concentration of diclazuril of about 10,000 ng/ml.

[2] = listed by JANSEEN Research Foundation; cited from earlier work
[3] = type: physicochemical
Description: Diclazuril has a very low solubility in water (<1×10^−7 at pH 6.5) and can in fact be considered as practically-insoluble in water. A presently preferred plasma drug concentration of about 8 μg/ml for about 25-30 days is needed for the effective treatment of equine protozoan myeloencephalitis (EPM). The oral bioavailability of diclazuril is very low. Thus, a parenteral formulation is desired.
(§1) Sodium salt of diclazuril was dissolved in water. […] The pH of the aqueous solution was 12.4. To this solution, 1N HCl was added dropwise while stirring and the pH at which the solution began to turn cloudy was recorded.

pKa of diclazuril = type: physicochemical; settings: aqueous solution of the sodium salt of diclazuril; inferred from pH stability study of the sodium salt; read-out: pKa inferred from precipitation pH
Description: (§2) The manufacturer of diclazuril, JANSEEN Research Foundation, listed the pKa of diclazuril to be 5.92 in its physico-chemical characteristics of diclazuril. It can be expected that at pH's above the pKa of the compound (i.e. pH>6), aqueous solution of diclazuril would stay in solution. Preliminary studies were conducted to determine the pH at which sodium salt would precipitate.
as §1

in vivo = assay: in vivo; set-up: species or system horse
Description: OWENS, (about 1,000 lbs.) received 750 mg of diclazuril powder dissolved in 30 ml of DMSO, intravenously, twice on day one, at zero and zero plus one hours for a total dose of 1,500 mg. Blood samples were drawn at the indicated time points immediately before the next dosing and the solid circles [drawing 4] in FIG. 1 represent plasma concentrations of diclazuril after these administrations. Plasma concentrations of dicalzuril in ng/ml are represented on the vertical axis against time in days on the horizontal axis. […] Concentrations at 72 hr and 96 hr were not included in calculation following IV administration. Area Under the Curve (AUC from 0 to ∞): Intercept-Slope Method [formula] […] Cl=55.26 ml/min. […] ClH=QH. EH EH is lower than 0.3 so diclazuril is found to have low hepatic extraction ratio.

[4] = pH stability of sodium salt of diclazuril (dropwise 1N HCl until cloudy); type: physicochemical
Description: as §2, §1
This will not cause a problem as there are many drugs on the market that are formulated at higher pHs for exactly the same reason.

Babesia equi = settings: horses treated for piroplasmosis; cited from earlier work

concentration at 24 h [1]: ~10000 ng/mL
solubility in water (in words) [3]: completely insoluble in water
pKa (pKa of diclazuril): ~10.5
level of diclazuril in urine samples (in vivo): Not detectable
EH (hepatic extraction ratio) (in vivo; horse): lower than 0.3
AUC (in vivo; horse, iv): 452 µg·h/mL
clearance (in vivo; horse, iv): 55.3 mL/min
half-life (in vivo; horse, iv): ~48 h
Compound: N#CC(c1ccc(Cl)cc1)c1c(Cl)cc(-n2ncc(=O)[nH]c2=O)cc1Cl (stereo not drawn) [diclazuril]
pKa listed by manufacturer [2]: 5.92

pH at which the solution began to turn cloudy ([4]; 1N HCl added dropwise while stirring, preliminary study): 10.5
pH of the aqueous solution ([4]; sodium salt dissolved in water): 12.4
Compound: N#CC(c1ccc(Cl)cc1)c1c(Cl)cc(-n2ncc(=O)[n-]c2=O)cc1Cl.[Na+] (stereo not drawn) [sodium salt of diclazuril]

Compound: O=C(Nc1cccc(C2=NCCN2)c1)Nc1cccc(C2=NCCN2)c1 [imidocarb dipropionate]
adverse side effects of treatment (Babesia equi): salivation, restlessness, colic and gastrointestinal tract hypermotility
